Reference: patent US10513521B2, “Compositions and methods for inhibiting BMP” (The Brigham and Women's Hospital, Inc., priority 2014, dated 2019)
Where two headings read alike, the source gives them in different places.

Tests used:
ALK3 = ALK3 (Homo sapiens, UniProt P36894); test: TR-FRET enzymatic ALK kinase assay, ALK3
Procedure: (§1) Briefly, the ALKs enzymatic assay was initiated by dispense 2.5 μl enzyme in 1× kinase reaction buffer. The assay plate was then added with compounds followed by incubation at room temperature for 10 minutes. Then 2.5 μl/well substrate was added.

ALK6 = ALK6 (Homo sapiens, UniProt O00238); test: TR-FRET enzymatic ALK kinase assay, ALK6
Procedure: as §1

ALK1 = ALK1 (Homo sapiens, UniProt P37023); test: TR-FRET enzymatic ALK kinase assay, ALK1
ALK1, sequence (P37023 22-503): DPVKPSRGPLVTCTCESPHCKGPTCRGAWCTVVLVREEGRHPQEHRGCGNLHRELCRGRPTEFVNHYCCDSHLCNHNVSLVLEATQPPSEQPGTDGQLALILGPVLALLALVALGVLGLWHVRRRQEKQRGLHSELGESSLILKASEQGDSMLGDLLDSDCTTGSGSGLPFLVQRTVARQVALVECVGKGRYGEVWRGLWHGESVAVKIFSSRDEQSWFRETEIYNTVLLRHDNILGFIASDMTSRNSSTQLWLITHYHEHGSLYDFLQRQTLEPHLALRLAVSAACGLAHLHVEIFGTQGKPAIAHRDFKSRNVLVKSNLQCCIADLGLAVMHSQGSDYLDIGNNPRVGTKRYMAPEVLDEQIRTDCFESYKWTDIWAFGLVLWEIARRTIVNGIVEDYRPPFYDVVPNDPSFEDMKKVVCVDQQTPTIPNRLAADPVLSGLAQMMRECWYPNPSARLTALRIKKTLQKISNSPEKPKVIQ
Procedure: as §1

ALK4 = biological target: T1, ALK4 (Homo sapiens, UniProt P36896); test: TR-FRET enzymatic ALK kinase assay, ALK4
T1 sequence (P36896 24-505): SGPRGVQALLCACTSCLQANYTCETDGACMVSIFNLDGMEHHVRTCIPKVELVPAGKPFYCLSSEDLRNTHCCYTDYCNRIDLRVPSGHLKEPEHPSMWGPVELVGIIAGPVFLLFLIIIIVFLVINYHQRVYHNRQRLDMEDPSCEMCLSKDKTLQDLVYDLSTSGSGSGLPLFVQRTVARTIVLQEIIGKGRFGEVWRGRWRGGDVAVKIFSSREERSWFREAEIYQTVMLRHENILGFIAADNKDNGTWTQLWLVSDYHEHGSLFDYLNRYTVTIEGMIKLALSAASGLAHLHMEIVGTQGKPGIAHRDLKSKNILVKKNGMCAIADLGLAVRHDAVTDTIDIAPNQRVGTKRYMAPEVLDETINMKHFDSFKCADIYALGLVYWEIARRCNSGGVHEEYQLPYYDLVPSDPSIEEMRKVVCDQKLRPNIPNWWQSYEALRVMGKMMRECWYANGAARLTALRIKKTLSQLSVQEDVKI
Procedure: as §1

ALK2 = biological target: T2, ALK2 (Homo sapiens, UniProt Q04771); test: TR-FRET enzymatic ALK kinase assay, ALK2
T2 sequence (Q04771 21-509): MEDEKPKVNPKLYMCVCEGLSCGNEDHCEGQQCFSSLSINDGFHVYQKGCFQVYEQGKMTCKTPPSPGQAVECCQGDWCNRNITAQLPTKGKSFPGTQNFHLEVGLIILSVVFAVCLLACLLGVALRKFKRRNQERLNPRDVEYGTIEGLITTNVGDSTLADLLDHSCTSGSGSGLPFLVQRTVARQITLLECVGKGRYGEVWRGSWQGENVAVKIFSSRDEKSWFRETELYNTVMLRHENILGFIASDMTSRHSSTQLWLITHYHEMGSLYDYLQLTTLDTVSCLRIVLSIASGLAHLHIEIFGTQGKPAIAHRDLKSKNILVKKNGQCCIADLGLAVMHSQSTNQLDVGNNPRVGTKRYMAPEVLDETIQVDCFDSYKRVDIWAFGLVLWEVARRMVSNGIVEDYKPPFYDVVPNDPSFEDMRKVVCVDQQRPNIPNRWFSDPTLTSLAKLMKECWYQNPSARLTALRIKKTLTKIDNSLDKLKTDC
Procedure: as §1

ALK5 = biological target: T3, ALK5 (Homo sapiens, UniProt P36897); test: TR-FRET enzymatic ALK kinase assay, ALK5
T3 sequence (P36897 34-503): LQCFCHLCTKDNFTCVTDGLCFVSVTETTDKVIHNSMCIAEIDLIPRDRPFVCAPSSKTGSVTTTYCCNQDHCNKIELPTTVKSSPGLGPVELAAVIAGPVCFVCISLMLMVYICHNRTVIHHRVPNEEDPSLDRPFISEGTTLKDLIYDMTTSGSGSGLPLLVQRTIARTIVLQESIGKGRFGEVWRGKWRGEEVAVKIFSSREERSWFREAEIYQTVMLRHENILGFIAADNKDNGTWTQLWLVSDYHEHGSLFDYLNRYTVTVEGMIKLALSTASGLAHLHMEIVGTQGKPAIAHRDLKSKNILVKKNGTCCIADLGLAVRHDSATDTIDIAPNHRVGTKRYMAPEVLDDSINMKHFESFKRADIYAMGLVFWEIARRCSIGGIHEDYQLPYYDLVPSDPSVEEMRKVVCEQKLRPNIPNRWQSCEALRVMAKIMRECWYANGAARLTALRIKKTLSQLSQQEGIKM
Procedure: Six ALK kinase enzyme assays were developed for determination of compound activities on ALK1, ALK2, ALK3, ALK4, ALK5 and ALK6.
as §1

ALK3, sequence (P36894 24-532): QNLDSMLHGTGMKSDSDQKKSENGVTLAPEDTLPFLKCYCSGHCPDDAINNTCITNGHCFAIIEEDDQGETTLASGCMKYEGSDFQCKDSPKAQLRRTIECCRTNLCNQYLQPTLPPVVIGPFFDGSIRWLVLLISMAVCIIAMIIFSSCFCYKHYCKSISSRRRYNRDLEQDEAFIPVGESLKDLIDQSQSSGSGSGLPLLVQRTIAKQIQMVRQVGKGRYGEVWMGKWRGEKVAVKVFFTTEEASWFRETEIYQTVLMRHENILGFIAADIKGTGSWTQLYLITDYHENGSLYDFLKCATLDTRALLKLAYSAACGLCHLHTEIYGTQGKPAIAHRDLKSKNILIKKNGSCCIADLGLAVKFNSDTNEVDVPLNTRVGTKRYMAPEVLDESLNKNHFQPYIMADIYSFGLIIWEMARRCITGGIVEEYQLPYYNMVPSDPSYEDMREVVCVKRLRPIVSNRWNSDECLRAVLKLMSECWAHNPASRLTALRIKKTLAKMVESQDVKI
ALK6, sequence (O00238 14-502): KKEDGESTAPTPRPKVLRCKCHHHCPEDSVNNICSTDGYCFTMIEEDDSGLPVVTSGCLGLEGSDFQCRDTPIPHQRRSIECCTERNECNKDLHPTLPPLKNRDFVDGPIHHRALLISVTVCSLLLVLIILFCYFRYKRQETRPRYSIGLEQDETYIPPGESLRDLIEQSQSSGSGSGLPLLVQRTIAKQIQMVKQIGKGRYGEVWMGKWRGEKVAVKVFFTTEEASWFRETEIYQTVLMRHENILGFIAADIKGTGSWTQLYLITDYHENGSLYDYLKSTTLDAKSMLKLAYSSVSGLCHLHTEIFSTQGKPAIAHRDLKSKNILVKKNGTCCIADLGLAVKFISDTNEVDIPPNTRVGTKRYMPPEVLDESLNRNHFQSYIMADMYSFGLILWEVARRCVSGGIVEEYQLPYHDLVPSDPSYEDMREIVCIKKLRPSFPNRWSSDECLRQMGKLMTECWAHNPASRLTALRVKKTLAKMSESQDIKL

Molecule	IC50 (ALK3)	IC50 (ALK6)	IC50 (ALK1)	IC50 (ALK4)	IC50 (ALK2)	IC50 (ALK5)	IC50 (ALK3; read-out: Kinase Assay ALK3, enzyme assay)	IC50 (ALK6; read-out: Kinase Assay ALK6, enzyme assay)	IC50 (ALK1; read-out: Kinase Assay ALK1, enzyme assay)	IC50 (ALK4; read-out: Kinase Assay ALK4, enzyme assay)	IC50 (ALK2; read-out: Kinase Assay ALK2, enzyme assay)	IC50 (ALK5; read-out: Kinase Assay ALK5, enzyme assay)
C[S+](=O)([O-])c1cccc(-c2cnn3cc(-c4ccc(CCN5CCC6(CC5)CNC6)cc4)cnc23)c1 [Compound 178, 6-(4-(2-(2,7-diazaspiro[3.5]nonan-7-yl)ethyl)phenyl)-3-(3-(methylsulfonyl)phenyl)pyrazolo[1,5-a]pyrimidine]	> 10 µM	> 10 µM	> 10 µM	> 10 µM	0.092 µM	> 10 µM	–	–	–	–	–	–
CC(O)c1cccc(-c2cnn3cc(-c4ccc(OC5(CN6CCNCC6)CC5)cc4)cnc23)c1 (stereo not drawn) [Compound 168, 1-(3-(6-(4-(1-(piperazin-1-ylmethyl)cyclopropoxy)phenyl)pyrazolo[1,5-a]pyrimidin-3-yl)phenyl)ethanol]	1.7 µM	> 10 µM	0.61 µM	> 10 µM	0.085 µM	> 10 µM	–	–	–	–	–	–
CS(=O)(=O)c1cccc(-c2cnn3cc(-c4ccc(CCN5CCCC(O)C5)cc4)cnc23)c1 (stereo not drawn) [Compound 141, 1-(4-(3-(3-(methylsulfonyl)phenyl)pyrazolo[1,5-a]pyrimidin-6-yl)phenethyl)piperidin-3-ol]	5.9 µM	> 10 µM	0.75 µM	> 10 µM	0.098 µM	> 10 µM	–	–	–	–	–	–
CC(O)c1cccc(-c2cnn3cc(-c4ccc(CCN5CCCC(O)C5)cc4)cnc23)c1 (stereo not drawn) [Compound 150, 1-(4-(3-(3-(1-hydroxyethyl)phenyl)pyrazolo[1,5-a]pyrimidin-6-yl)phenethyl)piperidin-3-ol]	4.1 µM	> 10 µM	0.71 µM	> 10 µM	0.14 µM	> 10 µM	–	–	–	–	–	–
(3R)-1-((1-(4-(3-(3-(1-amino-2,2,2-trifluoroethyl)phenyl)pyrazolo[1,5-a]pyrimidin-6-yl)phenoxy)cyclopropyl)methyl)-3-methylpyrrolidin-3-ol [Compound 185]	–	–	–	–	–	–	1.8 µM	> 10 µM	0.54 µM	> 10 µM	0.044 µM	> 10 µM

Second part, the molecule after the results:

IC50 (ALK3)	IC50 (ALK6)	IC50 (ALK1)	IC50 (ALK4)	IC50 (ALK2)	IC50 (ALK5)	IC50 (ALK3; read-out: Kinase Assay ALK3, enzyme assay)	IC50 (ALK6; read-out: Kinase Assay ALK6, enzyme assay)	IC50 (ALK1; read-out: Kinase Assay ALK1, enzyme assay)	IC50 (ALK4; read-out: Kinase Assay ALK4, enzyme assay)	IC50 (ALK2; read-out: Kinase Assay ALK2, enzyme assay)	IC50 (ALK5; read-out: Kinase Assay ALK5, enzyme assay)	Molecule
4.86 µM	17.4 µM	1.31 µM	12.7 µM	0.249 µM	18.5 µM	–	–	–	–	–	–	COc1ccc2ccccc2c1-c1cnn2cc(-c3ccc(N4[C@H](C)CNC[C@@H]4C)cc3)cnc12 [Compound 34, 6-(4-((2R,6S)-2,6-dimethylpiperazin-1-yl)phenyl)-3-(2-methoxynaphthalen-1-yl)pyrazolo[1,5-a]pyrimidine]
8 µM	> 10 µM	1.4 µM	> 10 µM	0.22 µM	> 10 µM	–	–	–	–	–	–	CC(O)c1cccc(-c2cnn3cc(-c4ccc(CCN5CCCC5)cc4)cnc23)c1 (stereo not drawn) [Compound 146, 1-(3-(6-(4-(2-(pyrrolidin-1-yl)ethyl)phenyl)pyrazolo[1,5-a]pyrimidin-3-yl)phenyl)ethanol]
> 10 µM	> 10 µM	0.17 µM	> 10 µM	0.016 µM	> 10 µM	–	–	–	–	–	–	NS(=O)(=O)c1ccc(-c2cnn3cc(-c4ccc(OC5(CN6CCCC6)CC5)cc4)cnc23)c2ccccc12 [Compound 207, 4-(6-(4-(1-(pyrrolidin-1-ylmethyl)cyclopropoxy)phenyl)pyrazolo[1,5-a]pyrimidin-3-yl)naphthalene-1-sulfonamide]
0.89 µM	> 10 µM	0.77 µM	> 10 µM	0.045 µM	> 10 µM	–	–	–	–	–	–	CC(O)c1cccc(-c2cnn3cc(-c4ccc(OC5(CN6CCOCC6)CC5)cc4)cnc23)c1 (stereo not drawn) [Compound 177, 1-(3-(6-(4-(1-(morpholinomethyl)cyclopropoxy)phenyl)pyrazolo[1,5-a]pyrimidin-3-yl)phenyl)ethanol]
> 10 µM	> 10 µM	0.47 µM	> 10 µM	0.17 µM	> 10 µM	–	–	–	–	–	–	CC(O)c1cccc(-c2cnn3cc(-c4ccc(CCN5CCOCC5)cc4)cnc23)c1 (stereo not drawn) [Compound 147, 1-(3-(6-(4-(2-morpholinoethyl)phenyl)pyrazolo[1,5-a]pyrimidin-3-yl)phenyl)ethanol]
